SMILES strings stand for the structures.

The first test addresses Muscarinic acetylcholine receptor (Rattus norvegicus) (UniProt P08482+P08483+P08485+P08911+P10980). The test is described as follows: Displacement of [3H]-QNB from muscarnic receptor in Rattus norvegicus (rat) cerebral cortex at 10 uM after 90 min by scintillation counting analysis. The class given is tissue-based. On the technique in general: In a radioligand displacement assay an active substance lowers the binding of a labelled ligand.
As for `CCC1(CC)CC(CN2CCc3ccccc3C2)OC1=O` (stereo unspecified), the inhibition (usually the drop in the measured response relative to a control, in per cent) came to 44%. Same read-out and setting: as for `CCC1(CC)CC(CN2CCN(c3ccccc3C#N)CC2)OC1=O` (stereo unspecified), the figure is 31%; as for `CCC1(CC)CC(CN2CCN(c3ccccc3)CC2)OC1=O` (stereo unspecified), 16%; as for `CCC1(CC)CC(CN2CCC(c3ccccc3)CC2)OC1=O` (stereo unspecified), 68%. For `CCC1(CC)CC(COC(=O)Nc2ccc(N3CCCCC3)cc2)OC1=O` (stereo unspecified), the inhibition was 31%. The compound `CCC1(CC)CC(CN2CCN(c3ccc(OC)cc3)CC2)OC1=O` (stereo unspecified) registered an inhibition of 26%. Still for that read-out and setting: as for `CCC1(CC)CC(CN2CCN(c3ccc(C#N)cc3)CC2)OC1=O` (stereo unspecified), the figure is 18%; as for `CCC1(CC)CC(CN2CCN(C(c3ccccc3)c3ccccc3)CC2)OC1=O` (stereo unspecified), 97%; as for `CCC1(CC)CC(CN2CCN(c3cccc(OC)c3)CC2)OC1=O` (stereo unspecified), 9%.

In turn, `CCC1(CC)CC(CN2CCN(c3ccc([N+](=O)[O-])cc3)CC2)OC1=O` (stereo unspecified) yielded an inhibition of 18%. Same read-out and setting: to `CCC1(CC)CC(CN2CCN(c3ccc(O)cc3)CC2)OC1=O` (stereo unspecified) belongs 7%. In the case of `CCC1(CC)CC(CN2CCN(c3ccccc3OC)CC2)OC1=O` (stereo unspecified), the inhibition was 32%. Same read-out and setting: to `CCC1(CC)CC(CN2CCN(C(=O)c3ccccc3)CC2)OC1=O` (stereo unspecified) belongs 5%; to `CCC1(CC)CC(CN2CCC(c3nc4ccccc4[nH]3)CC2)OC1=O` (stereo unspecified), 46%; to `CCC1(CC)CC(CN2CCN(c3ccccc3O)CC2)OC1=O` (stereo unspecified), 46%.

A further test deals with Muscarinic acetylcholine receptor. Briefly: Displacement of [3H]-QNB from muscarnic receptor in Rattus norvegicus (rat) cerebral cortex after 90 min by scintillation counting analysis. The test is classed as tissue-based.
Regarding `CCC1(CC)CC(CN2CCN(C(c3ccccc3)c3ccccc3)CC2)OC1=O` (stereo unspecified), the IC50 (as a rule, the concentration needed to halve the response being measured) amounted to 340 nM.
